Measurements taken from patent publication US5021597A, “Novel acrylic acid salts, a process for their preparation, pharmaceutical compositions containing them and their use in the medicine” (Richter Gedeon Vegyeszeti Gyar Rt., priority 1989, dated 1991).
Counter-ions that a name gives are not always drawn.

Experiments:
[1] = test system: gastric injuries induced by acidic alcohol; experiment: gastric injuries induced by acidic alcohol (cytoprotection); type: in vivo, rat; conditions: acidic alcohol gastric injury, female rats, pretreatment 30 min; for % Inhibition at a dose of 10 mg/kg p.o.: Table 2
Experimental: (1) Assay of gastric injuries induced by acidic alcohol [A. Robert, Gastroenterology, 77, 761-767 (1979)]
Female rats weighing about 120 to 150 g fasted for 24 hours were used in this test. Test compounds suspended with Tween 80 were given orally to the animals through an intragastric tube. After a certain period (pretreatmenttime) acidic alcohol was given through the intragastric tube at a dose or 0.5 ml per 100 g of body weight. The animals were sacrificed after 1 hour, their stomach was removed and incised along the great curve. The length of the reddish-brown strips (haemorrhagic lesions) was measured and the mean total length per stomach was calculated. The biological activity of the test compounds was given compared to the control group.

gastric acid secretion = experiment: inhibition of gastric acid secretion by using pylorus ligature (Shay); type: in vivo, Wistar rat; conditions: pretreatment 30 min; for ED50 p.o.: 240 min; for % Inhibition in the amount of the acid at a dose of 25 mg/kg p.o.: Table 4, female Wistar rats
Experimental: (2) Assay of the inhibition of gastric acid secretion by using pylorus ligature [Shay et al., Gastroenterology, 5, 43-61 (1945)]
Before ligating the pylorus the test compounds suspended with Tween were given orally at a volume of 0.5 ml per […] of body weight to female Wistar rats fasted previously for 20 hours. The animals were sacrificed 4 hours after the operation, and the amount of the acid in the stomach was measured by titration with 0.01N sodium hydroxide solution in the presence of phenolphtalein indicator. The pH value of the content of the stomach was measured by using a pH-meter (Radelkis, Type OP-211/1).

Campylobacter pylori = experiment: activity against Campylobacter pylori by agar diffusion and agar dilution assays; type: cell-based; conditions: Helicobacter pylori, Campylobacter pylori cultures isolated from 5 different ulcerous patients, read-out: MIC (minimal inhibitory concentration)
Experimental: The activity of the compounds of the present invention against Campylobacter pylori was investigated by agar diffusion and agar dilution assays. The experiments were carried out with Campylobacter pylori cultures isolated from 5 different ulcerous patients.

Molecule | ED50 p.o. ([1]; Table 1) | ED50 p.o. (gastric acid secretion; Table 3, female Wistar rats) | % Inhibition in the amount of the acid at a dose of 25 mg/kg p.o. (gastric acid secretion) | also measured
O=C(O)/C=C/S(=O)(=O)c1ccccc1 [A, bismuth tris [3-phenylsulfonyl-2(E)-propenoate] pentahydrate] | – | – | – | ED50 ([1]; Rattus norvegicus, po, Table 1): 4 mg/kg; ED50 (gastric acid secretion; Rattus norvegicus, po, 4 h, Table 3, female Wistar rats): 8.6 mg/kg
O=C(O)/C=C/S(=O)(=O)c1ccccc1 [C, monoethanolamine salt of 3-phenylsulfonyl-2(E)-propenoic acid] | 3.6 mg/kg | 11.0 mg/kg | – | –
O=C(O)/C=C/S(=O)(=O)c1ccccc1 [D, bismuth bis [3-phenylsulfonyl-2(E)-propenoate] chloride hexahydrate] | 3.1 mg/kg | 12.0 mg/kg | – | MIC (Campylobacter pylori): 250 to 1000 µg/mL
O=C(O)/C=C/S(=O)(=O)c1ccccc1 [E, (S)-arginine salt of 3-phenylsulfonyl-2(E)-propenoic acid] | – | – | 56% | % Inhibition at a dose of 10 mg/kg p.o. [1]: 73%
O=C(O)/C=C/S(=O)(=O)c1ccccc1 [F, (S)-lysine salt of 3-phenylsulfonyl-2(E)-propenoic acid] | 4.1 mg/kg | – | 50% | –
O=C(O)/C=C/Sc1ccccc1 [G, bismuth tris [3-phenylthio-2(E)-propenoate] trihydrate] | – | – | 15% | –
O.O.O.O.O=C([O-])/C=C/S(=O)(=O)c1ccccc1.O=C([O-])/C=C/S(=O)(=O)c1ccccc1.[Zn+2] [H, zinc bis [3-phenylsulfonyl-2(E)-propenoate] tetrahydrate] | 3.2 mg/kg | 8.0 mg/kg | – | –
zinc bis [phenylthio-2(Z)-propenoate] hydrate | – | – | – | % Inhibition at a dose of 10 mg/kg p.o. [1]: 61%
